Patent publication US20160235752A1, “COMPOSITIONS, METHODS OF USE, AND METHODS OF TREATMENT” (THE UNIVERSITY OF NEW ORLEANS, priority 2013, published 2016)
≈ marks a conversion by molar mass, not a printed value.

Tests used:
[1] = tested on: Candida glabrata (ATCC no. 48435); test: MIC determination by broth microdilution (NCCLS), visual scoring; assay type: cell-based; conditions: for MIC80: Nakaseomyces glabratus, ATCC48435, read-out: MIC80 C. glabrata
Description: The antifungal activity of the 2,4,6-pyrimidinetrione analogs shown in Schemes 2-6 were evaluated in vitro using Candida albicans (ATCC no. 10231) and Candida glabrata (ATCC no 48435). All assays were done in accordance with NCCLS reference documents^29. The results of these screenings are summarized in Tables 1-9 as the minimal inhibitory concentrations that inhibited more than 80% fungal growth as compared to the positive controls in 1% DMSO and RPMI media. All MIC screens were done using a visual scoring method as opposed to spectroscopic methods of analysis, due to the physical properties of many of the compounds altering their absorbance spectra relative to the positive, negative and drug controls.
(§1) None of the compounds tested over the course of these studies were soluble in water and DMSO was used to dilute each compound tested. Master stock concentrations of all tested compounds were prepared to ensure that the maximum final concentration of DMSO was 1% or less. Subsequent 2-fold serial dilutions were made using sterile water to a final concentration of 1280-5.00 μg/ml. A final 10-fold dilution of each drug was made by aliquotting 0.1 mL of each drug dilution into 0.9 mL of fungal suspension in RPMI 1640 media with 10 mM HEPES buffer added (see methodology below), giving final concentrations tested in the range of 128-0.5 μg/ml.
(§2) Antifungal susceptibility studies and minimal inhibitory concentrations (MIC) values for Candida albicans (ATCC no. 10231) and Candida glabrata (ATCC no. 48435) were determined by the broth microdilution technique in accordance with NCCLS reference documents. Microdilution panels ranged from 0.5 to 128 μg/mL. All organisms were subcultured on Sabouraud agar and passaged to ensure purity and viability. The initiating inocula were prepared by picking 5-7 isolated colonies ˜1 mm in diameter from freshly prepared YM agar plates. Colonies were resuspended in sterile water, vortexed and the cell density was adjusted spectrophotometrically to the transmittance of a 0.5 McFarland standard at a wavelength of 530 nm, to yield a stock suspension of 1×10^6-5×10^6 cells/mL. The stock was allowed to hydrate for 30 minutes at room temperature. A working suspension was then made by diluting the stock 1:50 with RPMI 1640 media containing HEPES buffer. The working suspension was used for all assays. The plates were incubated at 35° C. for 48-72 hours in a humid atmosphere. Growth was scored visually. MIC values are defined as the lowest concentration of agent that prevents any discernible growth, ˜80% reduction of growth, as compared with drug-free control wells. All assays were run in parallel using either fluconazole or amphotericin B at the NCCLS recommended concentrations^29 as a drug control (Sigma-Aldrich).

[2] = tested on: Candida albicans (ATCC no. 10231); test: as above; assay type: cell-based; conditions: for MIC80: Candida albicans, ATCC10231, read-out: MIC80 C. albicans
Description: The antifungal activity of the 2,4,6-pyrimidinetrione analogs shown in Schemes 2-6 were evaluated in vitro using Candida albicans (ATCC no. 10231) and Candida glabrata (ATCC no 48435). All assays were done in accordance with NCCLS reference documents^29.
as §1, with “Master” for “None of the compounds tested over the course of these studies were soluble in water and DMSO was used to dilute each compound tested. Master”
as §2

[3] = Table 2, 5-Arylidene-2,4,6-pyrimidinetriones
[4] = Table 1, 5-Acyl-2,4,6-pyrimidinetriones, >80% growth inhibition, RPMI, 1% DMSO
[5] = Table 7, Phenylhydrazones of 5-Acylpyrimidinetriones
[6] = Table 5, Schiff Bases of 5-acylpyrimidinetriones
[7] = Table 3, 5-Alkylated Pyrimidinetriones
[8] = Table 4, 5,5-Dialkylated Pyrimidinetriones

Q: Which “MIC80 C. glabrata” value [1, 3] does the source give for `O=C1NC(=O)N(c2ccccc2)C(=O)C1=Cc1ccc(O)cc1` [BA46] here?
A: Its value is “— (none of the 5-acyl-2,4,6-pyrimidinetriones, 5-alkylated pyrimidinetriones or the 5,5-dialkylated pyrimidinetriones showed antifungal activity through 125 μg/mL)”.

Q: What about the “MIC80 C. albicans” value [2, 3] of the same molecule?
A: Its value is “— (none of the 5-acyl-2,4,6-pyrimidinetriones, 5-alkylated pyrimidinetriones or the 5,5-dialkylated pyrimidinetriones showed antifungal activity through 125 μg/mL)”.

Q: Which “MIC80 C. glabrata” value [1, 4] does the source give for `CN1C(=O)C(C(=O)c2ccc([N+](=O)[O-])cc2)C(=O)N(C)C1=O` [BA7] here?
A: Its value is “— (none of the 5-acyl-2,4,6-pyrimidinetriones, 5-alkylated pyrimidinetriones or the 5,5-dialkylated pyrimidinetriones showed antifungal activity through 125 μg/mL)”.

Q: And the “MIC80 C. albicans” value [2, 4]?
A: Its value is “— (none of the 5-acyl-2,4,6-pyrimidinetriones, 5-alkylated pyrimidinetriones or the 5,5-dialkylated pyrimidinetriones showed antifungal activity through 125 μg/mL)”.

Q: Which results are given for `C/C(=N\Nc1ccc([N+](=O)[O-])cc1[N+](=O)[O-])C1C(=O)N(C)C(=O)N(C)C1=O` [BA27, 5-{(1E)-1-[2-(2,4-dinitrophenyl)hydrazinylidene]ethyl}-1,3-dimethylpyrimidine-2,4,6-trione]?
A: MIC80 [1]: > 125 µg/mL; MIC80 [2]: > 125 µg/mL

Q: What does the source list for `O=C1NC(=O)N(c2ccccc2)C(=O)C1C(=NNc1ccc([N+](=O)[O-])cc1[N+](=O)[O-])c1ccccc1` (centres unmarked) [BA32]?
A: MIC80 C. glabrata [1, 5]: — (none of the 5-acyl-2,4,6-pyrimidinetriones, 5-alkylated pyrimidinetriones or the 5,5-dialkylated pyrimidinetriones showed antifungal activity through 125 μg/mL); MIC80 C. albicans [2, 5]: — (none of the 5-acyl-2,4,6-pyrimidinetriones, 5-alkylated pyrimidinetriones or the 5,5-dialkylated pyrimidinetriones showed antifungal activity through 125 μg/mL)

Q: With `CN1C(=O)C(=Cc2ccc(O)cc2O)C(=O)N(C)C1=O` [BA48] as the molecule, how does the “MIC80 C. glabrata” value [1, 3] read?
A: Its value is 2 µg/mL (≈ 7.24 µM).

Q: And the “MIC80 C. albicans” value [2, 3]?
A: The value was “— (none of the 5-acyl-2,4,6-pyrimidinetriones, 5-alkylated pyrimidinetriones or the 5,5-dialkylated pyrimidinetriones showed antifungal activity through 125 μg/mL)”.

Q: With `O=C1NC(=O)C(C=Nc2ccncc2)C(=O)N1` [BA83] as the molecule, how does the “MIC80 C. glabrata” value [1, 6] read?
A: The value was “— (none of the 5-acyl-2,4,6-pyrimidinetriones, 5-alkylated pyrimidinetriones or the 5,5-dialkylated pyrimidinetriones showed antifungal activity through 125 μg/mL)”.

Q: What about the “MIC80 C. albicans” value [2, 6] of the same molecule?
A: Its value is “— (none of the 5-acyl-2,4,6-pyrimidinetriones, 5-alkylated pyrimidinetriones or the 5,5-dialkylated pyrimidinetriones showed antifungal activity through 125 μg/mL)”.

Q: For `O=C1NC(=O)C(C=Nc2ccc(O)cc2)C(=O)N1` [BA81], which “MIC80 C. glabrata” value [1, 6] is on record?
A: The value was “— (none of the 5-acyl-2,4,6-pyrimidinetriones, 5-alkylated pyrimidinetriones or the 5,5-dialkylated pyrimidinetriones showed antifungal activity through 125 μg/mL)”.

Q: And the “MIC80 C. albicans” value [2, 6]?
A: The value was “— (none of the 5-acyl-2,4,6-pyrimidinetriones, 5-alkylated pyrimidinetriones or the 5,5-dialkylated pyrimidinetriones showed antifungal activity through 125 μg/mL)”.

Q: Which results are given for `CC(=Nc1ccc(O)cc1)C1C(=O)N(C)C(=O)N(C)C1=O` [BA80]?
A: MIC80 C. glabrata [1, 6]: — (none of the 5-acyl-2,4,6-pyrimidinetriones, 5-alkylated pyrimidinetriones or the 5,5-dialkylated pyrimidinetriones showed antifungal activity through 125 μg/mL); MIC80 C. albicans [2, 6]: — (none of the 5-acyl-2,4,6-pyrimidinetriones, 5-alkylated pyrimidinetriones or the 5,5-dialkylated pyrimidinetriones showed antifungal activity through 125 μg/mL)

Q: `CC(=Nc1ccncc1)C1C(=O)N(C)C(=O)N(C)C1=O` [BA84] was tested. Which “MIC80 C. glabrata” value [1, 6] did it give?
A: The value was “— (none of the 5-acyl-2,4,6-pyrimidinetriones, 5-alkylated pyrimidinetriones or the 5,5-dialkylated pyrimidinetriones showed antifungal activity through 125 μg/mL)”.

Q: And the “MIC80 C. albicans” value [2, 6]?
A: Its value is “— (none of the 5-acyl-2,4,6-pyrimidinetriones, 5-alkylated pyrimidinetriones or the 5,5-dialkylated pyrimidinetriones showed antifungal activity through 125 μg/mL)”.

Q: For `COc1ccc(C=C2C(=O)N(C)C(=O)N(C)C2=O)c(OC)c1OC` [BA51], which “MIC80 C. glabrata” value [1, 3] is on record?
A: Its value is “— (none of the 5-acyl-2,4,6-pyrimidinetriones, 5-alkylated pyrimidinetriones or the 5,5-dialkylated pyrimidinetriones showed antifungal activity through 125 μg/mL)”.

Q: What about the “MIC80 C. albicans” value [2, 3] of the same molecule?
A: The value was “— (none of the 5-acyl-2,4,6-pyrimidinetriones, 5-alkylated pyrimidinetriones or the 5,5-dialkylated pyrimidinetriones showed antifungal activity through 125 μg/mL)”.

Q: Which results are given for `O=C1NC(=O)C(/C(=N/Nc2ccc([N+](=O)[O-])cc2[N+](=O)[O-])c2ccccc2)C(=O)N1` [BA30, 5-[(Z)-[2-(2,4-Dinitrophenyl)hydrazinylidene](phenyl)methyl]pyrimidine-2,4,6-trione]?
A: MIC80 [1]: > 125 µg/mL; MIC80 [2]: > 125 µg/mL

Q: How did the MIC80 [1] turn out when `CN1C(=O)C(C=O)C(=O)N(C)C1=O` [BA19, 1,3-dimethyl-2,4,6-trioxohexahydropyrimidine-5-carbaldehyde] was run?
A: The MIC80 was greater than 125 µg/mL.

Q: And the MIC80 [2]?
A: Its MIC80 is greater than 125 µg/mL.

Q: How did the “MIC80 C. glabrata” value [1, 7] turn out when `CCCCCCCC1C(=O)NC(=O)NC1=O` [BA60] was run?
A: Its value is “— (none of the 5-acyl-2,4,6-pyrimidinetriones, 5-alkylated pyrimidinetriones or the 5,5-dialkylated pyrimidinetriones showed antifungal activity through 125 μg/mL)”.

Q: And the “MIC80 C. albicans” value [2, 7]?
A: The value was “— (none of the 5-acyl-2,4,6-pyrimidinetriones, 5-alkylated pyrimidinetriones or the 5,5-dialkylated pyrimidinetriones showed antifungal activity through 125 μg/mL)”.

Q: With `CN(C)c1ccc(C=C2C(=O)NC(=O)NC2=O)cc1` [BA53] as the molecule, how does the “MIC80 C. glabrata” value [1, 3] read?
A: The value was “— (none of the 5-acyl-2,4,6-pyrimidinetriones, 5-alkylated pyrimidinetriones or the 5,5-dialkylated pyrimidinetriones showed antifungal activity through 125 μg/mL)”.

Q: What about the “MIC80 C. albicans” value [2, 3] of the same molecule?
A: The value was 62 µg/mL (≈ 239 µM).

Q: What does the source list for `CC(C)C1C(=O)NC(=O)N(c2ccccc2)C1=O` (centres unmarked) [BA61]?
A: MIC80 C. glabrata [1, 7]: — (none of the 5-acyl-2,4,6-pyrimidinetriones, 5-alkylated pyrimidinetriones or the 5,5-dialkylated pyrimidinetriones showed antifungal activity through 125 μg/mL); MIC80 C. albicans [2, 7]: — (none of the 5-acyl-2,4,6-pyrimidinetriones, 5-alkylated pyrimidinetriones or the 5,5-dialkylated pyrimidinetriones showed antifungal activity through 125 μg/mL)

Q: For `O=C1NC(=O)C(=Cc2ccc(O)cc2)C(=O)N1` [BA44], which “MIC80 C. glabrata” value [1, 3] is on record?
A: The value was “— (none of the 5-acyl-2,4,6-pyrimidinetriones, 5-alkylated pyrimidinetriones or the 5,5-dialkylated pyrimidinetriones showed antifungal activity through 125 μg/mL)”.

Q: And the “MIC80 C. albicans” value [2, 3]?
A: The value was “— (none of the 5-acyl-2,4,6-pyrimidinetriones, 5-alkylated pyrimidinetriones or the 5,5-dialkylated pyrimidinetriones showed antifungal activity through 125 μg/mL)”.

Q: Which results are given for `CC(=O)C1C(=O)NC(=O)NC1=O` [BA20]?
A: MIC80 [1]: > 125 µg/mL; MIC80 [2]: > 125 µg/mL

Q: `O=C1NC(=O)C(=Cc2ccc3ccccc3c2)C(=O)N1` [BA40] was tested. Which “MIC80 C. glabrata” value [1, 3] did it give?
A: Its value is “— (none of the 5-acyl-2,4,6-pyrimidinetriones, 5-alkylated pyrimidinetriones or the 5,5-dialkylated pyrimidinetriones showed antifungal activity through 125 μg/mL)”.

Q: What about the “MIC80 C. albicans” value [2, 3] of the same molecule?
A: The value was 125 µg/mL (≈ 469 µM).

Q: How did the “MIC80 C. glabrata” value [1, 4] turn out when `O=C1NC(=O)C(C(=O)c2cccc([N+](=O)[O-])c2)C(=O)N1` [BA4] was run?
A: Its value is “— (none of the 5-acyl-2,4,6-pyrimidinetriones, 5-alkylated pyrimidinetriones or the 5,5-dialkylated pyrimidinetriones showed antifungal activity through 125 μg/mL)”.

Q: What about the “MIC80 C. albicans” value [2, 4] of the same molecule?
A: Its value is “— (none of the 5-acyl-2,4,6-pyrimidinetriones, 5-alkylated pyrimidinetriones or the 5,5-dialkylated pyrimidinetriones showed antifungal activity through 125 μg/mL)”.

Q: `CN(C)c1ccc(CC2(CCCc3ccccc3)C(=O)NC(=O)NC2=O)cc1` [BA72] was tested. Which “MIC80 C. glabrata” value [1, 8] did it give?
A: The value was “— (none of the 5-acyl-2,4,6-pyrimidinetriones, 5-alkylated pyrimidinetriones or the 5,5-dialkylated pyrimidinetriones showed antifungal activity through 125 μg/mL)”.

Q: And the “MIC80 C. albicans” value [2, 8]?
A: The value was “— (none of the 5-acyl-2,4,6-pyrimidinetriones, 5-alkylated pyrimidinetriones or the 5,5-dialkylated pyrimidinetriones showed antifungal activity through 125 μg/mL)”.

Q: With `C/C(=N\CCCCCC(=O)O)C1C(=O)NC(=O)NC1=O` [BA29, 6-{(E)-[1-(2,4,6-trioxohexahydropyrimidin-5-yl)ethylidene]amino}hexanoic acid] as the molecule, how does the MIC80 [1] read?
A: Its MIC80 is greater than 125 µg/mL.

Q: And the MIC80 [2]?
A: Its MIC80 is greater than 125 µg/mL.

Q: What does the source list for `CC(=Nc1ccc(O)cc1)C1C(=O)NC(=O)NC1=O` [BA87]?
A: MIC80 C. glabrata [1, 6]: — (none of the 5-acyl-2,4,6-pyrimidinetriones, 5-alkylated pyrimidinetriones or the 5,5-dialkylated pyrimidinetriones showed antifungal activity through 125 μg/mL); MIC80 C. albicans [2, 6]: — (none of the 5-acyl-2,4,6-pyrimidinetriones, 5-alkylated pyrimidinetriones or the 5,5-dialkylated pyrimidinetriones showed antifungal activity through 125 μg/mL)
